Data published in patent US7230017B2, “Dihydropyridinone derivatives” (Bayer Healthcare AG, priority 2002, dated 2007).

Legend:
[1] = target: T1, human neutrophil elastase (HNE) (Homo sapiens, UniProt P08246); assay: In vitro inhibition of HNE using a fluorogenic peptide substrate (continuous read-out signal, 384 MTP assay format); type: biochemical; conditions: substrate MeOSuc-Ala-Ala-Pro-Val-AMC, 37° C.
T1 construct: purchased SERVA Electrophoresis GmbH, Heidelberg, Germany #20927.01
T1 sequence (P08246 30-267): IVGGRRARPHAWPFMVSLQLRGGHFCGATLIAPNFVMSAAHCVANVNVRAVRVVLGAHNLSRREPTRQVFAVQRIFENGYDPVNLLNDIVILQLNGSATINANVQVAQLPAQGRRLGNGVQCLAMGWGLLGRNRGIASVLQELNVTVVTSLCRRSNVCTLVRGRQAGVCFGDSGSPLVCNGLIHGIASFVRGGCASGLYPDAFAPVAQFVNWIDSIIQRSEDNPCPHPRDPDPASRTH
Protocol: I. In Vitro Enzyme Assays of Human Neutrophil Elastase (HNE)
assay buffer: 0.1 M HEPES-NaOH buffer pH 7.4, 0.5 M NaCl, 0.1% (w/v) bovine serum albumin;
suitable concentration (see below) of substrate in assay buffer;
suitable concentration of test compounds diluted with assay buffer from a 10 mM stock solution in DMSO.
The test solution is prepared by mixing 10 μl of test compound dilution, 20 μl of HNE enzyme dilution (final concentration 8–0.4 μU/ml, routinely 2.1 μU/ml) and 20 μl of substrate dilution (final concentration 1 mM–1 μM, routinely 20 μM), respectively. The solution is incubated for 0–2 hrs at 37° C. (routinely one hour). The fluorescence of the liberated AMC due to the enzymatic reaction is measured at 37° C. (TECAN spectra fluor plus plate reader). […] IC50 values are determined by RFU-versus-[I] plots. Km and Km(app.) values are determined by Lineweaver-Burk plots and converted to Ki values by Dixon plots.

[2] = system: human polymorphonuclear cells (PMNs); assay: In vitro PMN elastolysis assay (3H-elastin); type: cell-based; conditions: 4 hours at 37° C.
Protocol: In Vitro PMN Elastolysis Assay
This assay is used to determine the elastolytic potential of human polymorphonuclear cells (PMNs) and assess the proportion of degradation due to neutrophil elastase [cf. Z. W. She et al., Am. J. Respir. Cell. Mol. Biol. 9, 386–392 (1993)].
Tritiated elastin, in suspension, is coated on to a 96 well plate at 10 μg per well. Test and reference [ZD-0892 (J. Med. Chem. 40, 1876–1885, 3173–3181 (1997), WO 95/21855) and al protease inhibitor (α1PI)] compounds are added to the wells at the appropriate concentrations. Human PMNs are separated from peripheral venous blood of healthy donors and resuspended in culture media. The neutrophils are added to the coated wells at concentrations ranging between 1×10^6 to 1×10^5 cells per well. Porcine pancreatic elastase (1.3 μM) is used as a positive control for the assay, and α1PI (1.2 μM) is used as the positive inhibitor of neutrophil elastase. The cellular control is PMNs without compound at each appropriate cell density. The cells plus compounds are incubated in a humidified incubator at 37° C. for 4 hours. The plates are centrifuged to allow the harvest of cell supernatant only. […] The plates are dried until no liquid is visible in the wells and read in a beta counter for 3 minutes per well. […]
The compounds of this invention are evaluated for their inhibitory activity in this HNE-dependent model of neutrophil elastolysis.

IC50 [1] [nM]	Compound	other results
8	CC1=C(C#N)C(c2ccc(C#N)cc2)C(C(N)=O)C(=O)N1c1cccc(C(F)(F)F)c1 (single isomer, unassigned; (-)) [Example 98, (−)-5-Cyano-4-(4-cyanophenyl)-6-methyl-2-oxo-1-[3-(trifluoromethyl)phenyl]-1,2,3,4-tetrahydro-3-pyridinecarboxamide]	–
30	CCOC(=O)C1=C(C)N(c2cccc(C(F)(F)F)c2)C(=O)C(C(=O)OCC)C1c1ccc(C#N)cc1 (stereo not shown) [Example 1]	–
20	CCOC(=O)C1=C(C)N(c2cccc(C(F)(F)F)c2)C(=O)C(C(N)=O)C1c1ccc(C#N)cc1 (stereo not shown) [Example 3]	–
13	CC1=C(C#N)C(c2ccc(C#N)cc2)C(C(N)=O)C(=O)N1c1cccc(C(F)(F)F)c1 (stereo not shown) [Example 7, 5-Cyano-4-(4-cyanophenyl)-6-methyl-2-oxo-1-[3-(trifluoromethyl)phenyl]-1,2,3,4-tetrahydro-3-pyridinecarboxamide]	–
25	CC1=C(C#N)C(c2ccc(C#N)cc2)C(C(=O)N(C)C)C(=O)N1c1cccc(C(F)(F)F)c1 (stereo not shown) [Example 12, 5-Cyano-4-(4-cyanophenyl)-N,N,6-trimethyl-2-oxo-1-[3-(trifluoromethyl)phenyl]-1,2,3,4-tetrahydro-3-pyridinecarboxamide]	–
25	CC(=O)C1=C(C)N(c2cccc(C(F)(F)F)c2)C(=O)C(C(=O)N(C)C)C1c1ccc(C#N)cc1 (stereo not shown) [Example 13, 5-Acetyl4-(4-cyanophenyl)-N,N,6-trimethyl-2-oxo-1-[3-(trifluoromethyl)phenyl]-1,2,3,4-tetrahydro-3-pyridinecarboxamide]	–
200	CCOC(=O)C1=C(C)N(c2cccc(C(F)(F)F)c2)C(=O)C(C(=O)OCC)C1c1cc2cc(C#N)ccc2o1 (stereo not shown) [Example 15, Diethyl 4-(5-cyano-1-benzofuran-2-yl)-6-methyl-2-oxo-1-[3-(trifluoromethyl)phenyl]-1,2,3,4-tetrahydro-3,5-pyridinedicarboxylate]	–
25	CC1=C(C#N)C(c2ccc(C#N)cc2)C(C(=O)NCCC(=O)O)C(=O)N1c1cccc(C(F)(F)F)c1 (stereo not drawn) [Example 19, N-({5-Cyano-4-(4-cyanophenyl)-6-methyl-2-oxo-1-[3-(trifluoromethyl)phenyl]-1,2,3,4-tetrahydro-3-pyridinyl}carbonyl)-β-alanine]	–
30	COCCNC(=O)C1C(=O)N(c2cccc(C(F)(F)F)c2)C(C)=C(C#N)C1c1ccc(C#N)cc1 (stereo not shown) [Example 20, 5-Cyano-4-(4-cyanophenyl)-N-(2-methoxyethyl)-6-methyl-2-oxo-1-[3-(trifluoromethyl)phenyl]-1,2,3,4-tetrahydro-3-pyridinecarboxamide]	–
15	CC1=C(C#N)C(c2ccc(C#N)cc2)C(C(=O)NCCO)C(=O)N1c1cccc(C(F)(F)F)c1 (stereo not shown) [Example 68, 5-Cyano-4-(4-cyanophenyl)-6-methyl-2-oxo-1-[3-(trifluoromethyl)phenyl]-1,2,3,4-tetrahydropyridine-3-carboxylic acid (2-hydroxyethyl)amide]	–
350	CCNC(=O)C1=C(C)N(c2cccc(C(F)(F)F)c2)C(=O)CC1c1ccc(C#N)cc1 (stereo not shown) [Example 77]	–
–	COc1ccc(C(=O)N[C@H](C(=O)N2CCC[C@H]2C(=O)N[C@H](C(=O)C(F)(F)F)C(C)C)C(C)C)cc1 [ZD-0892]	IC50 ([2]; n=2 different donors at 3.6×10^5 cells per well, read-out: IC50 (mean±s.e.m.)): 45.5 ± 7.75 nM
–	α1PI: al protease inhibitor (α1PI), used as the positive inhibitor of neutrophil elastase	inhibition of elastolysis (mean±s.e.m.) ([2]; at 1.2 μM, n=3 different donors at 3.6×10^5 cells per well): 83.46±3.97%
